The nature of this data set: Single dose oral pharmacokinetic study. The data set is classed as in vivo. The conditions noted are these: mouse, mice, 30 mg/kg, plasma; for AUC(0-t): read-out: Mice oral PK @30 mg/kg AUC 0-t; for Cmax: read-out: Mice oral PK @30 mg/kg Cmax. The protocol:
The test item was administered through oral route to animals (rat/mice) at 30 mg/kg dose in a suitable vehicle at 10 ml/kg dose volume. Blood samples (˜50 uL at each time point) were collected from retro-orbital plexus using K3 EDTA as anticoagulant in eppend; orf tubes at defined time intervals under light ether anesthesia. The samples were centrifuged at 3500×g to separate plasma and stored at −80° C. until analysis.
Sample analysis: Test samples were analyzed using LC-MS-MS after developing fit-for-purpose method for each of test compound.

`C=C(C)[C@@H]1CC[C@]2(C(=O)N3CCC[C@H]3c3ncc(-c4ccc(C(F)(F)F)cc4)[nH]3)CC[C@]3(C)[C@H](CC[C@@H]4[C@@]5(C)CC[C@H](OC(=O)[C@H]6C[C@@H](C(=O)O)C6(C)C)C(C)(C)[C@@H]5CC[C@]43C)[C@@H]12` [Compound 6, (1R,3S)-2,2-dimethyl-3-((((1R,3aS,5aR,5bR,7aR,9S,11aR,11bR,13aR,13bR)-5a,5b,8,8,11a-pentamethyl-1-(prop-1-en-2-yl)-3a-((S)-2-(5-(4-(trifluoromethyl)phenyl)-1H-imidazol-2-yl)pyrrolidine-1-carbonyl)icosahydro-1H-cyclopenta[a]chrysen-9-yl)oxy)carbonyl)cyclobutane-1-carboxylic acid]: the AUC(0-t) was determined as 93.4 µg·h/mL and the Cmax amounted to 3100 ng/mL.

For the molecule `C=C(C)[C@@H]1CC[C@]2(C(=O)N3CCC[C@H]3c3ncc(-c4ccc(Cl)cc4)[nH]3)CC[C@]3(C)[C@H](CC[C@@H]4[C@@]5(C)CC[C@H](OC(=O)[C@H]6C[C@@H](C(=O)O)C6(C)C)C(C)(C)[C@@H]5CC[C@]43C)[C@@H]12` [Compound 19, (1R,3S)-3-((((1R,3aS,5aR,5bR,7aR,9S,11aR,11bR,13aR,13bR)-3a-((S)-2-(5-(4-chlorophenyl)-1H-imidazol-2-yl)pyrrolidine-1-carbonyl)-5a,5b,8,8,11a-pentamethyl-1-(prop-1-en-2-yl)icosahydro-1H-cyclopenta[a]chrysen-9-yl)oxy)carbonyl)-2,2-dimethylcyclobutane-1-carboxylic acid], the AUC(0-t) is 183 µg·h/mL and the Cmax was determined as 7500 ng/mL.

On to `C=C(C)[C@@H]1CC[C@]2(C(=O)N3C4CCC3CC(n3c(C)nnc3C(C)C)C4)CC[C@]3(C)[C@H](CC[C@@H]4[C@@]5(C)CC[C@H](OC(=O)[C@H]6C[C@@H](C(=O)O)C6(C)C)C(C)(C)[C@@H]5CC[C@]43C)[C@@H]12` (stereo partly drawn) [Compound 38, (1R,3S)-3-((((1R,3aS,5aR,5bR,7aR,9S,11aR,11bR,13aR,13bR)-3a-((1R,3R,5S)-3-(3-isopropyl-5-methyl-4H-1,2,4-triazol-4-yl)-8-azabicyclo[3.2.1]octane-8-carbonyl)-5a,5b,8,8,11a-pentamethyl-1-(prop-1-en-2-yl)icosahydro-1H-cyclopenta[a]chrysen-9-yl)oxy)carbonyl)-2,2-dimethylcyclobutane-1-carboxylic acid], for which the AUC(0-t) was found to be 127 µg·h/mL and the Cmax turned out to be 7350 ng/mL.

As for `C=C(C)[C@@H]1CC[C@]2(C(=O)N3CCC[C@H]3c3ncc(-c4ccccn4)[nH]3)CC[C@]3(C)[C@H](CC[C@@H]4[C@@]5(C)CC[C@H](OC(=O)CC(C)(C)C(=O)O)C(C)(C)[C@@H]5CC[C@]43C)[C@@H]12` [Compound 39, 2,2-dimethyl-4-oxo-4-(((1R,3aS,5aR,5bR,7aR,9S,11aR,11bR,13aR,13bR)-5a,5b,8,8,11a-pentamethyl-1-(prop-1-en-2-yl)-3a-((S)-2-(5-(pyridin-2-yl)-1H-imidazol-2-yl)pyrrolidine-1-carbonyl)icosahydro-1H-cyclopenta[a]chrysen-9-yl)oxy)butanoic acid], the AUC(0-t) is 80.9 µg·h/mL and the Cmax stood at 5690 ng/mL.

As for `C=C(C)[C@@H]1CC[C@]2(C(=O)N3CCC[C@H]3c3ncc(-c4ccc(F)cc4)[nH]3)CC[C@]3(C)[C@H](CC[C@@H]4[C@@]5(C)CC[C@H](OC(=O)CC(C)(C)CC(=O)O)C(C)(C)[C@@H]5CC[C@]43C)[C@@H]12` [Compound 41, 5-(((1R,3aS,5aR,5bR,7aR,9S,11aR,11bR,13aR,13bR)-3a-((S)-2-(5-(4-fluorophenyl)-1H-imidazol-2-yl)pyrrolidine-1-carbonyl)-5a,5b,8,8,11a-pentamethyl-1-(prop-1-en-2-yl)icosahydro-1H-cyclopenta[a]chrysen-9-yl)oxy)-3,3-dimethyl-5-oxopentanoic acid], the AUC(0-t) stood at 258 µg·h/mL and the Cmax is 14500 ng/mL.

Take `C=C(C)[C@@H]1CC[C@]2(C(=O)N3C4CCC3CC(n3c(C)nnc3C(C)C)C4)CC[C@]3(C)[C@H](CC[C@@H]4[C@@]5(C)CC[C@H](OC(=O)CC(C)(C)C(=O)O)C(C)(C)[C@@H]5CC[C@]43C)[C@@H]12` (stereo partly drawn) [Compound 49, 4-(((1R,3aS,5aR,5bR,7aR,9S,11aR,11bR,13aR,13bR)-3a-((1R,3R,5S)-3-(3-isopropyl-5-methyl-4H-1,2,4-triazol-4-yl)-8-azabicyclo[3.2.1]octane-8-carbonyl)-5a,5b,8,8,11a-pentamethyl-1-(prop-1-en-2-yl)icosahydro-1H-cyclopenta[a]chrysen-9-yl)oxy)-2,2-dimethyl-4-oxobutanoic acid]: the AUC(0-t) came to 111 µg·h/mL and the Cmax amounted to 10800 ng/mL.

For `COCCOc1ccc(-c2cnc([C@@H]3CCCN3C(=O)[C@]34CC[C@@H](C5(C)CC5)[C@@H]3[C@H]3CC[C@@H]5[C@@]6(C)CC[C@H](OC(=O)[C@H]7C[C@@H](C(=O)O)C7(C)C)C(C)(C)[C@@H]6CC[C@@]5(C)[C@]3(C)CC4)[nH]2)cc1` [Compound 52, (1R,3S)-3-((((1R,3aS,5aR,5bR,7aR,9S,11aR,11bR,13aR,13bR)-3a-((S)-2-(5-(4-(2-methoxyethoxy)phenyl)-1H-imidazol-2-yl)pyrrolidine-1-carbonyl)-5a,5b,8,8,11a-pentamethyl-1-(1-methylcyclopropyl)icosahydro-1H-cyclopenta[a]chrysen-9-yl)oxy)carbonyl)-2,2-dimethylcyclobutane-1-carboxylic acid], the AUC(0-t) was found to be 273 µg·h/mL and the Cmax is 9610 ng/mL.

`CC1([C@@H]2CC[C@]3(C(=O)N4CCC[C@H]4c4ncc(-c5ccc[n+]([O-])c5)[nH]4)CC[C@]4(C)[C@H](CC[C@@H]5[C@@]6(C)CC[C@H](OC(=O)[C@H]7C[C@@H](C(=O)O)C7(C)C)C(C)(C)[C@@H]6CC[C@]54C)[C@@H]23)CC1` [Compound 53, 3-(2-((S)-1-((1R,3aS,5aR,5bR,7aR,9S,11aR,11bR,13aR,13bR)-9-(((1S,3R)-3-carboxy-2,2-dimethylcyclobutane-1-carbonyl)oxy)-5a,5b,8,8,11a-pentamethyl-1-(1-methylcyclopropyl)icosahydro-1H-cyclopenta[a]chrysene-3a-carbonyl)pyrrolidin-2-yl)-1H-imidazol-5-yl)pyridine-1-oxide]: the AUC(0-t) worked out at 471 µg·h/mL and the Cmax worked out at 14700 ng/mL.

Regarding `Cc1nnc(C(C)C)n1C1CCN(C(=O)[C@]23CC[C@@H](C4(C)CC4)[C@@H]2[C@H]2CC[C@@H]4[C@@]5(C)CC[C@H](OC(=O)[C@H]6C[C@@H](C(=O)O)C6(C)C)C(C)(C)[C@@H]5CC[C@@]4(C)[C@]2(C)CC3)CC1` [Compound 58, (1R,3S)-3-((((1R,3aS,5aR,5bR,7aR,9S,11aR,11bR,13aR,13bR)-3a-(4-(3-isopropyl-5-methyl-4H-1,2,4-triazol-4-yl)piperidine-1-carbonyl)-5a,5b,8,8,11a-pentamethyl-1-(1-methylcyclopropyl)icosahydro-1H-cyclopenta[a]chrysen-9-yl)oxy)carbonyl)-2,2-dimethylcyclobutane-1-carboxylic acid], the AUC(0-t) came out at 104 µg·h/mL and the Cmax was found to be 3050 ng/mL.

Take `Cc1nnc(C(C)C)n1C1CC2CCC(C1)N2C(=O)[C@]12CC[C@@H](C3(C)CC3)[C@@H]1[C@H]1CC[C@@H]3[C@@]4(C)CC[C@H](OC(=O)[C@H]5C[C@@H](C(=O)O)C5(C)C)C(C)(C)[C@@H]4CC[C@@]3(C)[C@]1(C)CC2` (stereo partly drawn) [Compound 60, (1R,3S)-3-((((1R,3aS,5aR,5bR,7aR,9S,11aR,11bR,13aR,13bR)-3a-((1R,3R,5S)-3-(3-isopropyl-5-methyl-4H-1,2,4-triazol-4-yl)-8-azabicyclo[3.2.1]octane-8-carbonyl)-5a,5b,8,8,11a-pentamethyl-1-(1-methylcyclopropyl)icosahydro-1H-cyclopenta[a]chrysen-9-yl)oxy)carbonyl)-2,2-dimethylcyclobutane-1-carboxylic acid]: the AUC(0-t) turned out to be 295 µg·h/mL and the Cmax amounted to 6520 ng/mL.

As to `Cc1nnc(C(C)C)n1C1CCN(C(=O)[C@]23CC[C@@H](C4(C)CC4)[C@@H]2[C@H]2CC[C@@H]4[C@@]5(C)CC[C@H](OC(=O)CC(C)(C)C(=O)O)C(C)(C)[C@@H]5CC[C@@]4(C)[C@]2(C)CC3)CC1` [Compound 69, 4-(((1R,3aS,5aR,5 bR,7aR,9S,11aR,11bR,13aR,13bR)-3a-(4-(3-isopropyl-5-methyl-4H-1,2,4-triazol-4-yl)piperidine-1-carbonyl)-5a,5b,8,8,11a-pentamethyl-1-(1-methylcyclopropyl)icosahydro-1H-cyclopenta[a]chrysen-9-yl)oxy)-2,2-dimethyl-4-oxobutanoic acid], the AUC(0-t) is 238 µg·h/mL and the Cmax was 16700 ng/mL.

Take `Cc1nnc(C(C)C)n1C1CC2CCC(C1)N2C(=O)[C@]12CC[C@@H](C3(C)CC3)[C@@H]1[C@H]1CC[C@@H]3[C@@]4(C)CC[C@H](OC(=O)CC(C)(C)C(=O)O)C(C)(C)[C@@H]4CC[C@@]3(C)[C@]1(C)CC2` (stereo partly drawn) [Compound 71, 4-(((1R,3aS,5aR,5bR,7aR,9S,11aR,11bR,13aR,13bR)-3a-((R,3R,5S)-3-(3-isopropyl-5-methyl-4H-1,2,4-triazol-4-yl)-8-azabicyclo[3.2.1]octane-8-carbonyl)-5a,5b,8,8,11a-pentamethyl-1-(1-methylcyclopropyl)icosahydro-1H-cyclopenta[a]chrysen-9-yl)oxy)-2,2-dimethyl-4-oxobutanoic acid]: the AUC(0-t) was found to be 298 µg·h/mL and the Cmax was found to be 15800 ng/mL.

(Values after US20170129916A1, “NOVEL BETULINIC PROLINE IMIDAZOLE DERIVATIVES AS HIV INHIBITORS” (HETERO RESEARCH FOUNDATION, priority 2014, published 2017).)
